Measured values: US20210113522A1, “COUMARIN DERIVATIVE AS ANTI-ASTHMATIC AGENT, PHARMACEUTICAL COMPOSITION THEREOF, ITS PREPARATION AND USE” (I-NOVA MEDICINSKA ISTRAZIVANJA D.O.O., priority 2017, published 2021)

Legend:
Format in all cases: in vivo, Balb/c mice
IL-5 = test: OVA model: IL-5 immunohistochemistry of lung sections; conditions: OVA-sensitised mice; both compound 1 groups 2 mg/kg, beclomethasone 1 mg/kg
Experimental: To investigate the treatment effect of compound 1, immunohistology from serial lung sections was performed 2 days after i.n. challenge in experimental mice that were treated with the compound 1 or beclomethasone as standard antiinflammatory and anti-asthmatic API.
• (1) Wash Buffer: T-PBS (0.1M, pH 7.4, 0.05% Tween 20); • (2) Blocking/Incubation Buffer: 1% bovine serum albumin, 0.1% Cold Fish Skin Gelatin, 0.5% Triton® X-100, 0.1 M PBS (pH 7.4); • (3) Peroxidase Blocking Solution (3% H2O2 in water); • (4) EDTA Antigen Retrieval Buffer (1 mM EDTA, 0.05% Tween 20, pH 8.0); • (5) Primary antibodies: • Rabbit anti-mouse IL-5 (Cat. #ABIN446956; Antibodies-Online GmbH, Schloss-Rahe-Str. 1552072 Aachen, Germany); • Rat anti-mouse CCL11 (Cat. #MAB420; R&D Systems, Inc., 614 McKinley Place Nebr., Minneapolis, Minn. 55413); • (6) Secondary antibodies: • Goat anti-rabbit IgG (H+L)-HRP (cat. #31466; Thermo Fisher Scientific, 168 Third Avenue Waltham, Mass. USA 02451); • Goat anti-rat IgG (H+L)—HRP (cat. #62-9520; Thermo Fisher Scientific, 168 Third Avenue Waltham, Mass. USA 02451); • (7) Pierce DAB Substrate Kit (DAB (10×), 25 mL; Stable Peroxide Buffer, 250 mL) (Catalog #34002; Thermo Fisher Scientific, 168 Third Avenue Waltham, Mass. […]

[1] = system: OVA-induced airway inflammation; test: OVA model: lung histology (haematoxylin/eosin); conditions: OVA-challenged mice; 1 2 mg/kg preventively or therapeutically, beclomethasone 1 mg/kg
Experimental: Lungs from the Balb/c mice from the test-groups were isolated and fixed in 10% formalin with […] of the same solution introduced intratracheally prior the overnight fixation. Paraffin sections from the lungs were analyzed using a standard haematoxylin/eosin staining technique.
• (1) fix in Solution A (fixative); • (2) dip 5 times in Solution C (red); • (3) dip 5 times in Solution B (blue); • (4) rinse the slides in distilled water; • (5) air-drying of the slides; • (6) mounted the cover slides; and then • (7) 400 cells were counted under light microscopy. Histology Staining was then Performed as Follows: The lungs from all animals were fixed in 10% formalin (pH 7.4). Once fixed, tissue is processed as follows: • (1) 70% ethanol for 1 hour; • (2) 80% ethanol for 1 hour; • (3) 95% ethanol for 1 hour; • (4) first absolute ethanol for 1 hour; • (5) second absolute ethanol 1 hour; • (6) first clearing agent (xylene) for 1 hour; • (7) second clearing agent (xylene) for 1 hour; • (8) first wax at 58° C. for 1 hour; • (9) second wax at 58° C. for 1 hour; and • (10) embedding tissues in paraffin blocks. Tissues were sectioned using a microtome at 5 μm slices. […]

CCL11 (eotaxin) = test: OVA model: CCL11 (eotaxin) immunohistochemistry of lung sections; conditions: OVA-challenged mice; 1 2 mg/kg, beclomethasone 1 mg/kg
Experimental: • (1) Wash Buffer: T-PBS (0.1M, pH 7.4, 0.05% Tween 20); • (2) Blocking/Incubation Buffer: 1% bovine serum albumin, 0.1% Cold Fish Skin Gelatin, 0.5% Triton® X-100, 0.1 M PBS (pH 7.4); • (3) Peroxidase Blocking Solution (3% H2O2 in water); • (4) EDTA Antigen Retrieval Buffer (1 mM EDTA, 0.05% Tween 20, pH 8.0); • (5) Primary antibodies: • Rabbit anti-mouse IL-5 (Cat. #ABIN446956; Antibodies-Online GmbH, Schloss-Rahe-Str. 1552072 Aachen, Germany); • Rat anti-mouse CCL11 (Cat. #MAB420; R&D Systems, Inc., 614 McKinley Place Nebr., Minneapolis, Minn. 55413); • (6) Secondary antibodies: • Goat anti-rabbit IgG (H+L)-HRP (cat. #31466; Thermo Fisher Scientific, 168 Third Avenue Waltham, Mass. USA 02451); • Goat anti-rat IgG (H+L)—HRP (cat. #62-9520; Thermo Fisher Scientific, 168 Third Avenue Waltham, Mass. USA 02451); • (7) Pierce DAB Substrate Kit (DAB (10×), 25 mL; Stable Peroxide Buffer, 250 mL) (Catalog #34002; Thermo Fisher Scientific, 168 Third Avenue Waltham, Mass. USA 02451); • (8) Hematoxylin Counterstain (Cat #GHS216; Sigma-Aldrich Chemie GmbH, Eschenstrasse 5, 82024 Taufkirchen, Germany); • (9) Vitro-Clud 500 Mounting Medium (Catalog #A20500; Deltalab; Plz. Verneda 1, Pol Ind La Llana 08191 Rubí Barcelona Spain). […]

Row | SMILES | IL-5 expression in lung sections (IL-5) | Eosinophil and other inflammatory cell infiltration in lung histology [1] | CCL11 (eotaxin) levels in lung sections (CCL11 (eotaxin))
1 | O=c1oc2cc(O)cc(O)c2c(O)c1-c1coc2c1c(=O)oc1cc(O)cc(O)c12 [Compound 1, 7,9-dihydroxy-3-(4,5,7-trihydroxy-2-oxo-2H-chromene-3-yl)-4H-furo[3,2-c]chromen-4-one] | no IL-5 expression | not observed | reduced to background
2 | C[C@H]1C[C@H]2[C@@H]3CCC4=CC(=O)C=C[C@]4(C)[C@@]3(Cl)[C@@H](O)C[C@]2(C)[C@@]1(O)C(=O)CO [beclomethasone, reference compound] | moderate result | not observed | reduced to background
